Laboratory results reported in patent publication US20050031600A1, “Cardiac function by mesenchymal stem cell transplantation” (Genzyme Corporation, priority 1998, published 2005).

Test system: mesenchymal stem cells (MSCs)
Experiment: Cardiomyogenic differentiation of cultured rat MSCs in vitro (myotube formation, immunofluorescent staining)
Format: cell-based
Conditions: for staining for cardiac specific troponin I / staining for myosin heavy chain: cultured MSCs, 21st day
Method: An incision was made in the hindlimb of each rat while the rat was under general anesthesia. An 18-gauge needle was punctured to the bone and used to aspirate bone marrow (1 ml) from the tibia. The marrow aspirate was transferred to sterile tubes, which contained 10 ml Iscove's modified Dulbecco medium (TMDM; Gibco Laboratories, Gaithersberg, Md.), containing antibiotics (penicillin G, 100 U/ml; streptomycin, 100 μg/ml) and 1000 IU heparin. The marrow cell suspension was dispersed into single cells using a 23-gauge needle. The tube was spun at 2000 rpm for 5 min to pellet the cells. After removing the supernatant and fat layer, the cell pellet was re-suspended with IMDM. To separate bone marrow cells and red blood cells, the density centrifugation method described by Yablonka-Reuveni and Nameroff (Histochemistry, 87:27-38, 1987) was used. First, the cell suspension was loaded onto 20% and 60% Percoll (Sigma Chemical Co., St. Louis, Mo.) layers, which were piled up in a tube, and the tube was centrifuged at 14000 rpm. for 10 minutes. […] The cells were centrifuged at 2,000 rpm for 10 minutes and then washed with phosphate-buffered saline (PBS) to remove the Percoll. This was repeated and then the cell pellet was resuspended in culture medium and used for in vitro and in vivo studies.
To identify the optimal conditions for inducing mesenchymal stem cell (MSC) differentiation by 5-azacytidine, the cells were cultured in IMDM containing 10% fetal bovine serum and antibiotics, with 5-azacytidine (5-aza: 0.1, 1, 5, 10, 20, and 100 μM; n=6 for each group), with insulin (1 nM; n=6), or with TGFβ1 (10 ng/ml; n=6). The cells were incubated with these agents for 24 hours and then washed with PBS. The medium was changed twice a week for 21 days. Almost all the hematopoietic stem cells were washed away with the medium changes.
To test the effect of cell passaging on cardiomyogenic differentiation of MSCs, samples of MSCs, prepared as described above, were passaged once prior to preparing the cell cultures described below. In this case, the term passaging refers to the distribution of cultured cells growing in a culture dish into new dishes after the cells reach confluence (i.e. when the cells contact each other and cover the surface of the dish).
One group of the MSCs, prepared as above, was, in turn, divided into two groups: A (control) and B, each group having 6 samples. Cells of the control group, A, were cultured for 7 days in IMDM containing 10% fetal bovine serum and antibiotics. The MSCs of group B were initially cultured for 2 days in the above medium after which 5-aza (10 μM) was added to the culture medium. After a 24 hour exposure to 5-aza, the compound was washed out of the culture and the cells were culturing in the medium described above for 4 days more.
Following the above culturing period, the cells from both groups were stained by immunocytofluorescence to detect the presence of cardiac-specific troponin I (a contractile apparatus-specific protein found only in cardiomyocytes) or muscle-specific myosin heavy chain. Briefly, the staining method entailed washing the cells with phosphate-buffer saline (PBS), followed by incubation in methanol at −20° C. for 20 minutes. The dishes were then washed with PBS three times. Monoclonal antibodies specific against cardiac troponin I (Spectral Diagnostic, Toronto) or against myosin heavy chain (Biogenesis, USA), were added to the cells and the dishes were incubated at 37° C. for 1 hour. To remove unbound antibody, the dishes were gently shaken at room temperature and washed three times with PBS. A rabbit antibody conjugated with FITC (fluorescein isothiocyanate) against mouse IgG was added to the dishes, after which incubation and rinsing with PBS were performed as described above for the first antibody. Observations were made and photos were taken. […]

[1] = cultured bone marrow MSCs, 5-aza added on third day, seen on 10th day of culture

| Compound | myotube formation (5 μM 5-aza for 24 hours) | number of MSCs in cultures (10 μM 5-aza added on first or second day compared with third day after isolation) | number of myotubes, visually determined (10 μM 5-aza compared with 5 μM 5-aza) | myotube formation (10 μM 5-aza for 24 hours) | necrotic cells (MSCs incubated with 5-aza at 20 μM) | necrotic cells (MSCs incubated with 5-aza at 100 μM) | differentiation into cardiomyocyte-like cells (myotube formation) (MSCs passaged once, then 5-aza 10 μM for 24 hours) | cell morphology (concentrations of 5-aza lower than 5 μM) | staining for cardiac specific troponin I | staining for myosin heavy chain | myotube formation [1] |
| --- | --- | --- | --- | --- | --- | --- | --- | --- | --- | --- | --- |
| Nc1ncn([C@@H]2O[C@H](CO)[C@@H](O)[C@H]2O)c(=O)n1 [5-aza, 5-azacytidine] | myotube formation was present | much smaller | greater | myotube formation was present | more than 50% | more than 50% | did not differentiate into cardiomyocyte-like cells | morphologically similar to the control cells | stained positively | stained positively | formed multinucleated myotubes |
| TGFβ1 | – | – | – | – | – | – | – | – | negative | negative | did not form myotubes |
| insulin | – | – | – | – | – | – | – | – | negative | negative | did not form myotubes |
